Measured values: the NIST ThermoML archive (doi:10.1021/je050428j)
± gives the expanded uncertainty stated by the source.

Conditions: 298.15 K; 101.33 kPa; Liquid; Vibrating tube method

SMILES	mass density [kg/m3]
CC(=O)N(C)C [N,N-dimethylethanamide]	936.214 ± 0.48
CCCCCC [hexane]	655.248 ± 0.28
CN(C)C=O [dimethylformamide]	943.875 ± 0.25
CCCCCCCCC [nonane]	714.064 ± 0.41

More lines, now with the values ahead:

mass density [kg/m3]	SMILES
679.627 ± 0.27	CCCCCCC [heptane]
698.636 ± 0.41	CCCCCCCC [octane]
